In US20250314644A1, “METHODS COMPRISING DETECTION OF ADP-HEPTOSE” (CHILDREN'S HOSPITAL MEDICAL CENTER, priority 2023, published 2025):

Test system: Dnmt3a^−/− HSCs
Test: ADP-heptose treatment of low-dose irradiated chimeric mice: donor HSC number in BM, EdU proliferation, secondary transplant
Format: in vivo, mouse
From the text: To model pre-leukemic clonal hematopoiesis, chimeric mice were generated as aas follows. Briefly, mixture of 1×10^6 whole bone marrow cells (WBM) were obtained from Poly (I:C) treated wild-type (Dnmt3a^+/+; MxCre^+, called Dnmt3a^WT) or mutant mice (Dnmt3a^f/f; MxCre^+, called Dnmt3a^KO) or double mutant mice (Dnmt3a^f/f; MxCre^+; Alpk1^KO, called Dnmt3a^KO; Alpk1^KO) (CD45.2^+), and transplanted into low-dose (2.5 Gy) irradiated recipient mice (CD45.1^+; 6-10 weeks of age). 8 weeks post-transplant, chimeric mice were treated with either water (H2O) or DSS (2.5%) for 1 week, and allowed to recover for 1 more week on water after which flow cytometry was performed on BM. In separate experiment, chimeric mice were pre-treated with broad spectrum antibiotics (ABX) for 4 weeks, and then subjected to DSS for 1 week after which flow cytometry performed on BM. In a separate set of experiment, chimeric mice were treated with either H2O or ADP-heptose (0.5 mg/kg) for 2 weeks, and flow cytometry performed after 2 more weeks on BM. In all the experiments, secondary transplantation was performed by purifying donor HSCs (CD45.2^+Lin^−Sca-1^+c-Kit^+Flk2^−CD150^+CD48^−) and transplanting 100 HSCs with 200,000 helper WBM cells (CD45.1+) into lethally irradiated (8 Gy) recipient mice (CD45.1^+), and donor chimerism in PB examined by flow cytometry.

Nc1ncnc2c1ncn2[C@@H]1O[C@H](COP(=O)(O)OP(=O)(O)O[C@@H]2O[C@H]([C@H](O)CO)[C@@H](O)[C@H](O)[C@@H]2O)[C@@H](O)[C@H]1O [ADP-heptose, ADP-D-glycero-β-D-manno-heptose]
expansion of Dnmt3a^−/− HSCs in BM (ADP-heptose 0.5 mg/kg for 2 weeks): rapid and significant expansion | proliferation of HSCs in vivo (EdU) (Dnmt3a^−/− HSCs, within 2 weeks): significant proliferation | self-renewal in secondary recipient mice (secondary transplant of donor HSCs): sustained self-renewal
